According to patent US11840686B2, “Modulation of prekallikrein (PKK) expression” (Ionis Pharmaceuticals, Inc., priority 2013, dated 2023):
Strand notation (5' to 3'): a small letter for the sugar, then the base; units joined by * are phosphorothioate-linked, units joined directly phosphodiester-linked; [ ] holds rarer units or linkages, { } end groups; capitals alone tell only the bases. e = 2'-O-(2-methoxyethyl) (MOE); [5mC] = 5-methylcytosine; d = 2'-deoxy (DNA)

System: human PKK mRNA
Test: Antisense inhibition of human PKK mRNA in HepaRG cells, 5,000 nM (Example 2)
Format: cell-based
Procedure: Additional antisense oligonucleotides were designed targeting a PKK nucleic acid and were tested for their effects on PKK mRNA in vitro.
The chimeric antisense oligonucleotides in the tables below were designed as 5-10-5 MOE gapmers, 4-9-4 MOE gapmers, 4-10-4 MOE gapmers, 4-10-3 MOE gapmers, 3-10-4 MOE gapmers, or 3-10-3 MOE gapmers. The 5-10-5 MOE gapmers are 20 nucleosides in length, wherein the central gap segment comprises of ten 2′-deoxynucleosides and is flanked by wing segments on the 5′ direction and the 3′ direction comprising five nucleosides each. The 4-9-4 MOE gapmers are 17 nucleosides in length, wherein the central gap segment comprises of nine 2′-deoxynucleosides and is flanked by wing segments on the 5′ direction and the 3′ direction comprising four nucleosides each. The 4-10-4 MOE gapmers are 18 nucleosides in length, wherein the central gap segment comprises of ten 2′-deoxynucleosides and is flanked by wing segments on the 5′ direction and the 3′ direction comprising four nucleosides each. The 4-10-3 MOE gapmers are 17 nucleosides in length, wherein the central gap segment comprises of ten 2′-deoxynucleosides and is flanked by wing segments on the 5′ direction and the 3′ direction comprising four and three nucleosides respectively. The 3-10-4 MOE gapmers are 17 nucleosides in length, wherein the central gap segment comprises often 2′-deoxynucleosides and is flanked by wing segments on the 5′ direction and the 3′ direction comprising three and four nucleosides respectively. The 3-10-3 MOE gapmers are 16 nucleosides in length, wherein the central gap segment comprises of ten 2′-deoxynucleosides and is flanked by wing segments on the 5′ direction and the 3′ direction comprising three nucleosides each. Each nucleoside in the 5′ wing segment and each nucleoside in the 3′ wing segment has a 2′-O-methoxyethyl modification. The internucleoside linkages throughout each gapmer are phosphorothioate linkages. All cytosine residues throughout each gapmer are 5-methylcytosines. “Start site” indicates the 5′-most nucleoside to which the gapmer is targeted in the human gene sequence. “Stop site” indicates the 3′-most nucleoside to which the gapmer is targeted in the human gene sequence.
Cultured HepaRG™ cells at a density of 20,000 cells per well were transfected using electroporation with 5,000 nM antisense oligonucleotide. After a treatment period of approximately 24 hours, RNA was isolated from the cells and PKK mRNA levels were measured by quantitative real-time PCR. Human primer probe set RTS3454 was used to measure mRNA levels. PKK mRNA levels were adjusted according to total RNA content, as measured by RIBOGREEN®. The antisense oligonucleotides were tested in a series of experiments that had similar culture conditions. Results are presented as percent inhibition of PKK, relative to untreated control cells.

[1] = human PKK mRNA in HepaRG cells, 5-10-5 gapmers, Table 14
[2] = Table 8, HepaRG cells, electroporation with 5,000 nM antisense oligonucleotide, approx. 24 hours, PKK mRNA by RT-PCR (RTS3454), relative to untreated control cells
[3] = HepaRG cells, electroporation, 5,000 nM antisense oligonucleotide, approx. 24 hours, primer probe set RTS3454, relative to untreated control cells, Table 12
[4] = human PKK mRNA, HepaRG cells, 5-10-5 motif oligonucleotides targeting SEQ ID NO: 1 and 10
[5] = HepaRG cells, electroporation with 5,000 nM antisense oligonucleotide, approximately 24 hours, PKK mRNA by RT-PCR (RTS3454), relative to untreated control cells, Table 6 experiment
[6] = Table 13, human PKK mRNA in HepaRG cells, 5-10-5 gapmers
[7] = Table 7, HepaRG cells, electroporation with 5,000 nM antisense oligonucleotide, approx. 24 hours, PKK mRNA by RT-PCR (RTS3454), relative to untreated control cells

Substance: 548731 (DNA e[5mC]*eT*eG*eT*dA*d[5mC]*dT*dA*dG*dT*dT*dT*d[5mC]*d[5mC]*eT*eA*eT; antisense) [compound 548731]
- % inhibition (human PKK mRNA, HepaRG cells, 5,000 nM antisense oligonucleotide, Table 18): 49%

Substance: 547623 (antisense eT*eG*eT*e[5mC]*eA*d[5mC]*dT*dG*dT*dA*d[5mC]*d[5mC]*dT*dA*dT*eA*eA*e[5mC]*eT*e[5mC]) [compound 547623]
- % inhibition [1]: 81%

Substance: 547422 (eA*e[5mC]*e[5mC]*eA*eT*d[5mC]*d[5mC]*dA*dT*dA*dG*dA*dT*dA*dA*eT*e[5mC]*eT*eT*eA; antisense) [compound 547422]
- % inhibition [2]: 70%

Substance: 547549 (antisense e[5mC]*e[5mC]*e[5mC]*eA*eT*dG*d[5mC]*dA*dT*dA*d[5mC]*dT*d[5mC]*dG*d[5mC]*e[5mC]*eT*eT*eT*eG) [compound 547549]
- % inhibition [3]: 36%

Substance: 546864 (eA*eT*eA*eA*e[5mC]*dT*dA*dT*dA*dA*d[5mC]*dA*dA*dT*dA*eT*e[5mC]*eA*e[5mC]*eT; antisense) [compound 546864]
- % inhibition [1]: 0%

Substance: 547650 (eG*eT*eA*e[5mC]*e[5mC]*dT*dA*dT*dA*dA*d[5mC]*dA*dG*dT*dA*eT*e[5mC]*eA*e[5mC]*eT; antisense) [compound 547650]
- % inhibition [4]: 32%

Substance: 547586 (eT*eA*eT*eA*eA*d[5mC]*dA*dG*dT*dA*dT*d[5mC]*dA*d[5mC]*dT*eG*eT*e[5mC]*e[5mC]*eT; antisense) [compound 547586]
- % inhibition [1]: 82%

Substance: 546153 (eG*eG*eG*eT*eG*dT*dA*d[5mC]*dA*dT*dG*dG*dA*dA*dG*e[5mC]*eT*eA*e[5mC]*eA; antisense) [compound 546153]
- % inhibition (HepaRG cells, electroporation with 5,000 nM antisense oligonucleotide, approximately 24 hours, PKK mRNA by RT-PCR (RTS3454), relative to untreated control cells, Table 5 experiment): 76%

Substance: 547348 (antisense eA*e[5mC]*eA*e[5mC]*eT*dG*d[5mC]*dT*dA*dA*d[5mC]*d[5mC]*dT*dT*dA*eG*eA*e[5mC]*eA*e[5mC]) [compound 547348]
- % inhibition [5]: 83%

Substance: 546907 (eA*eT*eA*eA*e[5mC]*dT*dA*dT*dA*dA*d[5mC]*dA*dG*dT*dA*eT*e[5mC]*eA*e[5mC]*e[5mC]; antisense) [compound 546907]
- % inhibition [4]: 37%

Substance: 547412 (eA*eT*e[5mC]*eA*eT*d[5mC]*dT*dT*dT*dG*dT*dG*d[5mC]*dA*dA*eG*eT*e[5mC]*eT*e[5mC]; antisense) [compound 547412]
- % inhibition [2]: 73%

Substance: 546843 (eT*eA*eT*e[5mC]*eA*d[5mC]*dT*dG*dT*d[5mC]*d[5mC]*dT*dA*dT*dA*eA*e[5mC]*eT*e[5mC]*eT; antisense) [compound 546843]
- % inhibition [6]: 52%

Substance: 547410 (e[5mC]*eA*eA*eG*eT*d[5mC]*dT*d[5mC]*dT*dT*dG*dG*d[5mC]*dA*dA*eA*e[5mC]*eA*eT*eT; antisense) [compound 547410]
- % inhibition [2]: 88%

Substance: 547329 (antisense eT*eT*eA*eT*eT*dT*dG*dA*dT*dG*dA*d[5mC]*d[5mC]*dA*d[5mC]*eA*eT*eT*eG*e[5mC]) [compound 547329]
- % inhibition [5]: 24%

Substance: 546236 (eG*eT*eT*eA*eA*dA*dA*dG*dG*d[5mC]*dT*dA*dT*dA*dT*e[5mC]*e[5mC]*eA*eG*eA; antisense) [compound 546236]
- % inhibition [7]: 50%

Substance: 547599 (antisense eT*eT*e[5mC]*e[5mC]*eT*dA*dT*dA*dA*d[5mC]*dT*dA*dT*dA*dA*e[5mC]*eA*eA*eT*eA) [compound 547599]
- % inhibition [1]: 4%

Substance: 546499 (eT*e[5mC]*e[5mC]*eA*eT*dG*d[5mC]*dA*dT*dA*d[5mC]*dT*d[5mC]*dG*d[5mC]*e[5mC]*eT*eT*eT*eG; antisense) [compound 546499]
- % inhibition [3]: 20%

Substance: 548720 (DNA eT*eG*eT*dA*d[5mC]*dT*dA*dG*dT*dT*dT*d[5mC]*d[5mC]*eT*eA*eT*eA; antisense) [compound 548720]
- % inhibition (HepaRG cells, 5,000 nM antisense oligonucleotide, human PKK mRNA, Table 18): 0%

Substance: 547388 (eT*eA*eT*eG*eG*dT*dG*dT*dT*dT*dT*d[5mC]*dT*dT*dG*eA*eG*eG*eA*eG; antisense) [compound 547388]
- % inhibition [7]: 55%

Substance: 547580 (eA*eT*e[5mC]*eA*e[5mC]*dT*dG*dT*d[5mC]*d[5mC]*dT*dA*dT*dA*dA*e[5mC]*eT*e[5mC]*eT*eA; antisense) [compound 547580]
- % inhibition [6]: 61%
